Assay results as given in PMC9126943, “ADAMTS4-specific MR probe to assess aortic aneurysms in vivo using synthetic peptide libraries” (Nature Communications, 2022).
Where “and” joins values, the source holds several entries; their conditions need not be identical. Equal values may be shown once. Entries after “also recorded” stand apart in the source; their conditions may differ. Where a SMILES comes first, the peptide text is derived from it. Bridges are numbered along the chain shown (N, C = ends). The star is where a group is joined. Cy5(nonsulfonated) = CN1C(=CC=CC=CC2=[N+](CCCCCC(=O)*)c3ccccc3C2(C)C)C(C)(C)c2ccccc21

Assays:
[1] = target: T1, ADAMTS4 (Homo sapiens, UniProt O75173); test: MST instrument, ligand-dependent fluorescence change, Cy5-labeled peptides vs ADAMTS4 (incl. alanine scan); format: binding; details: for binding to ADAMTS4 (ligand-dependent fluorescence change), in words: Cy5-labeled peptide 3 nM, 25 °C, n = 3
T1 construct: This is consistent with the recombinant proteins, we used in the screening process; purchased BioTeZ Berlin-Buch GmbH 30 400 102
T1 sequence (O75173 213-685): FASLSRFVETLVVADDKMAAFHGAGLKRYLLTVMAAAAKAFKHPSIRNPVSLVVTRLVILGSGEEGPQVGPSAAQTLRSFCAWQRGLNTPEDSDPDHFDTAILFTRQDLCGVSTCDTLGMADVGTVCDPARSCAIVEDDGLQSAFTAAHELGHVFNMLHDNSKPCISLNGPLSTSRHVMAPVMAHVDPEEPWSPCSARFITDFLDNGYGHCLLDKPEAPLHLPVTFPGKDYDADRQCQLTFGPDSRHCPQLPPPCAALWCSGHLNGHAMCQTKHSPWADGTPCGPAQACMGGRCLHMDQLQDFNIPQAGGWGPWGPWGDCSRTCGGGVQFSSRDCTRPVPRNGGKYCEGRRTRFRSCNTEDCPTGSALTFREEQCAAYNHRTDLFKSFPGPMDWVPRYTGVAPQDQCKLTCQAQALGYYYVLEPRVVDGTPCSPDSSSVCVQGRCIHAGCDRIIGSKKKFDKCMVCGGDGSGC
Description: Microscale thermophoresis (MST) was performed on a Monolith Pico (NanoTemper, Munich, Germany). The Cy5-labeled peptides were diluted into the MST buffer (150 mM NaCl, 50 mM TRIS-HCl, 5 mM CaCl2, and Tween-20) to reach a dilution of 6 nM. ADAMTS4, ADAMTS5, and ADAMTS1 were directly used with the supplied concentration. For ADAMTS4, the starting concentration was 4.96 µM, while for ADAMTS1 it was 4.88 µM and for ADAMTS5 it was 2.46 µM. […] 20 µl of the protein solutions were transferred into a PCR tube. 10 µl of this first vial was transferred into a second vial and mixed by pipetting with 10 µl of the MST buffer. The dilution series was continued 14 times. From tube 16, 10 µl were removed. Into all 16 tubes, 10 µl of the respective peptide solution were added and mixed by pipetting. The samples were incubated for 20 min and subsequently transferred to premium capillaries (NanoTemper, Munich, Germany). The capillaries were transferred into the Monolith tray and measured with 10% excitation power on the pico-red excitation on high MST power at 25 °C. Analysis was performed with MO.Affinity Analysis v3.0.1 (NanoTemper, Munich, Germany) and Origin 2022 (OriginLab Corporation, Northampton, MA). […] We checked for ADAMTS4 and the ADAMTS4-specific-Cy5-labeled probe via a saturation test for specifying the ligand-dependent fluorescence change. Therefore, the three highest ligand concentrations and the three lowest ligand concentrations of the measurement were used and centrifuged for 15 min at 16060 x g at 20 °C. Of each concentration, 7 µl were picked and mixed with 7 µl of a 10 M urea solution each. The samples were heated at 95 °C for 5 min and measured in the MST. […] Each measurement was repeated three times independently and the binding constant was calculated by merging all three measurements. […] The data were normalized using MO Affinity Analysis v3.0.1 and the fraction bound [−] was shown. […] Therefore, the percentage variance of the values to the average was plotted.
All measurements were performed with 10% LED power, high MST power and at 25 °C. The ligand dependent fluorescence change was used for determining the binding. […] The concentrations of the peptide were kept constant (3 nM in the measurement), while the proteins were diluted in the same manner as for ADAMTS4. […] The Cy5-labeled peptides (3 nM in the measurement) were kept constant, while ADAMTS4 was diluted in the same manner for each peptide (n=3 biologically independent measurements for each peptide; the data are presented as mean values ± SD). […] MST: microscale thermophoresis; nM: nanomolar; His: L-histidine; LED: light-emitting diode; n/a: not available; KD: binding constant.

[2] = target: T1, ADAMTS4; test: MST trace (MST points at 2.5 seconds) of peptides without fluorescence change; format: binding; details: high MST power
Description: Microscale thermophoresis (MST) was performed on a Monolith Pico (NanoTemper, Munich, Germany). The Cy5-labeled peptides were diluted into the MST buffer (150 mM NaCl, 50 mM TRIS-HCl, 5 mM CaCl2, and Tween-20) to reach a dilution of 6 nM. ADAMTS4, ADAMTS5, and ADAMTS1 were directly used with the supplied concentration. For ADAMTS4, the starting concentration was 4.96 µM, while for ADAMTS1 it was 4.88 µM and for ADAMTS5 it was 2.46 µM. Since we saw a loss of binding after centrifugation, the use of protein concentrators were inappropriate. 20 µl of the protein solutions were transferred into a PCR tube. 10 µl of this first vial was transferred into a second vial and mixed by pipetting with 10 µl of the MST buffer. […] The capillaries were transferred into the Monolith tray and measured with 10% excitation power on the pico-red excitation on high MST power at 25 °C. […] We detected a ligand-dependent fluorescence change for some of the systems. We checked for ADAMTS4 and the ADAMTS4-specific-Cy5-labeled probe via a saturation test for specifying the ligand-dependent fluorescence change. […] The samples were heated at 95 °C for 5 min and measured in the MST. The fluorescence difference between the concentrations was afterward at the same level. Each measurement was repeated three times independently and the binding constant was calculated by merging all three measurements. […]

[3] = target: T2, ADAMTS4 in the aortic wall of ApoE−/− mice (Mus musculus, UniProt Q8BNJ2); test: In vivo MRI with negative control probe and ADAMTS4-specific probe; details: for CNR post administration, individual animals: d1 = negative control probe, d2 = ADAMTS4-specific probe, 0.13 mmol/kg
T2 construct: from tissue
T2 sequence (Q8BNJ2 209-833): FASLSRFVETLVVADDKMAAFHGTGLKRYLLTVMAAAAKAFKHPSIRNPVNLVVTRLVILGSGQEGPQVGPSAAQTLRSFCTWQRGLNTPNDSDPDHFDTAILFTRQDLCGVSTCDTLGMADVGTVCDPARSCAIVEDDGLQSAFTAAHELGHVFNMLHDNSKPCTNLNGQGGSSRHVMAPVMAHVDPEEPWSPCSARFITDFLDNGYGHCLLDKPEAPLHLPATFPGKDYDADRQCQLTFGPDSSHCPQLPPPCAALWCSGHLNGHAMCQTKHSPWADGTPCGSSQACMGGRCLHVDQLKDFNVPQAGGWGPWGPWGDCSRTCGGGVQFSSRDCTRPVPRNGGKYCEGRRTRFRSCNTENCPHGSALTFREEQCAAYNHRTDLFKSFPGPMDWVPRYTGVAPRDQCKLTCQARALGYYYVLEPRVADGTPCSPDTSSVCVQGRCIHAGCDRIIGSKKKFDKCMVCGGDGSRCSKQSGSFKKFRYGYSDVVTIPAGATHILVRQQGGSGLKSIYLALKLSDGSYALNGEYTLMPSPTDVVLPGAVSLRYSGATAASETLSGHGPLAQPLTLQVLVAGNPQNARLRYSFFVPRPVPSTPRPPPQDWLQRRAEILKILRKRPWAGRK
Description: In vivo MR imaging was performed in 6 ApoE^−/− mice (n = 6): three mice (n = 3) received AngII through the osmotic minipumps, three mice (n = 3) received saline, serving as the control group. MR imaging was performed 4 weeks after minipump implantation. On day 1, a native MR scan was followed by the intravenous injection of the negative control peptide (0.13 mmol/kg) and a subsequent MR scan. 24 h later, mice were imaged prior to and following the intravenous administration of the ADAMTS4-specific probe (0.13 mmol/kg).
Analysis of resulting MR images was performed using OsiriX (version 7.1, OsiriX Foundation, Bernex, Switzerland). All morphometric measurements were conducted on high-resolution MRI images. In order to assess the signal intensities, regions of interest (ROIs) were measured as areas of signal enhancement, which were co-localized with areas of aneurysmal-aortic tissue. For these areas, the CNR was calculated using the following formula: CNR = (Combined vessel-wall and aneurysmal-aortic-tissue-signal − blood-signal)/standard-deviation-signal (noise). The signal of noise was defined as the standard deviation in pixel intensity from an ROI placed in the background air anterior to the aorta.

[4] = target: ADAMTS4-specific peptide with the glycine exchanged for alanine (alanine scan peptide), Cy5-labeled; test: MST; Monolith Pico; read-out is the ligand-dependent fluorescence change, not the thermophoresis; Cy5-labeled peptide constant (6 nM solution), protein in a 16-step 1:1 dilution series; 150 mM NaCl, 50 mM TRIS-HCl, 5 mM CaCl2, Tween-20; 25 °C
[5] = target: ADAMTS4-specific probe, Cy5-labeled (cyclic peptide Cys*-Ser-Arg-Arg-Gly-Cys*-Ser with peptide linker); test: as above

C[C@@H]1NC(=O)[C@H](CCCNC(=N)N)NC(=O)[C@H](CCCNC(=N)N)NC(=O)[C@H](CO)NC(=O)[C@@H](N)CSSC[C@@H](C(=O)N[C@@H](CO)C(=O)NCC(=O)NCC(=O)N[C@@H](CO)C(=O)NCC(=O)NCC(=O)N[C@@H](CCCCNC(=O)CCCCCN2C(=CC=CC=CC3=[N+](C)c4ccccc4C3(C)C)C(C)(C)c3ccccc32)C(=O)NCC(N)=O)NC1=O [ADAMTS4-specific probe-Gly] (H-CSRRACSGGSGGK(Cy5(nonsulfonated))G-NH2; disulfide 1-6; N-terminus and C-terminus assumed)
binding to ADAMTS4 (ligand-dependent fluorescence change), in words [1]: decrease the binding; also recorded: a ligand dependent fluorescence change occurs
decrease in the binding affinity versus the parent peptide ([1]; alanine scan): around ten times

Cys*-Phe-His-Pro-Tyr-Cys*-Ser (disulfide) [negative control peptide]
binding in the MST trace [2]: no binding occurs
binding to ADAMTS4 (ligand-dependent fluorescence change), in words [1]: could not find binding; also recorded: no fluorescence change was detectable; also recorded: did not show any binding

Cys*-Phe-His-Pro-Tyr-Cys*-linker (DOTA-Gd) (disulfide) [negative control probe, Cys*-Phe-His-Pro-Tyr-Cys*-linker (DOTA-Gd), similar size to the ADAMTS4-specific probe]
increase in MR signal / CNR in the aortic wall, in words ([3]; 0.13 mmol/kg i.v., 4 weeks after minipump implantation, n = 6): no significant increase; also recorded: significantly lower increase
CNR post administration, individual animals ([3]; AAA (AngII) mice): 7.71 and 5.8 and 6.78
CNR post administration, individual animals ([3]; control (c, saline) mice): 4.54 and 4.4 and 5.52

B1: ADAMTS4 (A Disintegrin And Metalloproteinase with ThromboSpondin motifs 4), recombinant human (enzyme)
chain: FASLSRFVETLVVADDKMAAFHGAGLKRYLLTVMAAAAKAFKHPSIRNPVSLVVTRLVILGSGEEGPQVGPSAAQTLRSFCAWQRGLNTPEDSDPDHFDTAILFTRQDLCGVSTCDTLGMADVGTVCDPARSCAIVEDDGLQSAFTAAHELGHVFNMLHDNSKPCISLNGPLSTSRHVMAPVMAHVDPEEPWSPCSARFITDFLDNGYGHCLLDKPEAPLHLPVTFPGKDYDADRQCQLTFGPDSRHCPQLPPPCAALWCSGHLNGHAMCQTKHSPWADGTPCGPAQACMGGRCLHMDQLQDFNIPQAGGWGPWGPWGDCSRTCGGGVQFSSRDCTRPVPRNGGKYCEGRRTRFRSCNTEDCPTGSALTFREEQCAAYNHRTDLFKSFPGPMDWVPRYTGVAPQDQCKLTCQAQALGYYYVLEPRVVDGTPCSPDSSSVCVQGRCIHAGCDRIIGSKKKFDKCMVCGGDGSGC
Kd [4]: 609 nM
Kd [5]: 51 nM
